Test results published in US20160280743A1, “BACTERIAL MUTANTS AND METHODS OF USE” (priority 2015, published 2016).
≈ marks a conversion by molar mass, not a printed value. Where two headings read alike, the source gives them in different places.

Experiments:
[1] = test system: E. coli WT, WT-Pore, ΔTolC, ΔTolC-Pore; type: cell-based, Escherichia coli; conditions: for Fold MIC change, Efflux, WT-Pore/ΔTolC-Pore / Fold MIC change, Efflux, WT/ΔTolC / Fold MIC change, OM barrier, WT/WT-Pore / Fold MIC change, OM barrier, ΔTolC/ΔTolC-Pore: E. coli
[2] = test system: E. coli WT-Pore (GKCW101, FhuAΔC/Δ4L pore); test: microbe, parasite or virus in culture; conditions: Escherichia coli
Description: (§1) Susceptibilities of E. coli and P. aeruginosa cells to different classes of antibiotics were determined by two-fold broth dilution method [1] with following modifications. Cells were grown in Luria-Bertani (LB) broth (tryptone 10 g/L, yeast extract 5 g/L and NaCl 5 g/L) with appropriate selection markers as needed, at 37° C. with shaking at 200 rpm. When needed, at OD600˜0.3, either L-arabinose (final concentration 0.1%) or IPTG (final concentration 0.1 mM) were added to induce the expression of the pore and cells were further incubated until OD600 reached 1.0. MICs of various antimicrobial agents were measured in 96-well micro-titer plates. For this purpose, exponentially growing cells were inoculated at a density of 10^5 cells/ml into wells containing LB medium in the presence of two-fold increasing concentrations of drugs under investigation at constant inducer concentration of 0.1% arabinose for E. coli or 0.1 mM IPTG for P. aeruginosa strains. Cell growth was determined visually or using Spark 10M microplate reader (Tecan) after incubation of the micro-titer plates at 37° C. for 16 h.
(§2) For this purpose, induced cells were dispensed into 96-well microplates with LB medium containing two-fold dilutions of an antibiotic of interest and a respective concentration of an inducer.

[3] = test system: E. coli GD102 (ΔTolC); conditions: for MIC GD102 (ΔTolC) —: E. coli ΔTolC without pore, 0.1% arabinose, LB, 37° C., 16 h
Description: as §1, §2

[4] = test system: E. coli BW 25113 (WT); test: microbe, parasite or virus in culture; conditions: Escherichia coli
Description: as §1, §2

[5] = test system: E. coli ΔTolC-Pore (GKCW103, FhuAΔC/Δ4L pore); conditions: 0.1% arabinose, LB, 37° C., 16 h
Description: as §1, §2

[6] = test system: P. aeruginosa PAO1Δ3 (Δ3); conditions: for MIC Δ3 —: P. aeruginosa Δ3 without pore, 0.1 mM IPTG, LB, 37° C., 16 h
Description: as §1, §2

[7] = test system: P. aeruginosa Δ3-Pore (GKCW116, FhuAΔC/Δ4L pore); test: MIC, two-fold broth dilution, P. aeruginosa Δ3-Pore; conditions: for MIC Δ3 Pore: P. aeruginosa Δ3-Pore, 0.1 mM IPTG, LB, 37° C., 16 h
Description: as §1, §2

[8] = test system: P. aeruginosa PAO1; test: microbe, parasite or virus in culture; conditions: Pseudomonas aeruginosa, PAO1, 16 h, read-out: MIC PAO1 —
Description: as §1, §2

[9] = test system: P. aeruginosa PAO1, PAO1-Pore, Δ3, Δ3-Pore; test: Fold MIC change between P. aeruginosa strains (OM barrier, efflux); type: cell-based, Pseudomonas aeruginosa; conditions: for Fold MIC change, Efflux, PAO1-Pore/Δ3-Pore / Fold MIC change, Efflux, PAO1/Δ3 / Fold MIC change, OM barrier, PAO1/PAO1-Pore / Fold MIC change, OM barrier, Δ3/Δ3-Pore: P. aeruginosa
[10] = test system: P. aeruginosa PAO1-Pore (GKCW115, FhuAΔC/Δ4L pore); test: MIC, two-fold broth dilution, P. aeruginosa PAO1-Pore; conditions: Pseudomonas aeruginosa
Description: as §1, §2

[11] = 16 h, read-out: MIC BW 25113 (WT) Pore
[12] = 16 h, read-out: MIC BW 25113 (WT) —

Compound | Fold MIC change, Efflux, WT-Pore/ΔTolC-Pore [1] [fold] | Fold MIC change, Efflux, WT/ΔTolC [1] [fold] | Fold MIC change, OM barrier, WT/WT-Pore [1] [fold] | Fold MIC change, OM barrier, ΔTolC/ΔTolC-Pore [1] [fold] | MIC [2, 11] [mg/L] | MIC GD102 (ΔTolC) — [3] [mg/L] | MIC [4, 12] [mg/L] | MIC GD102 (ΔTolC) Pore [5] [mg/L] | MIC Δ3 — [6] [mg/L] | MIC Δ3 Pore [7] [mg/L] | MIC [8] [mg/L] | Fold MIC change, Efflux, PAO1-Pore/Δ3-Pore [9] [fold] | Fold MIC change, Efflux, PAO1/Δ3 [9] | Fold MIC change, OM barrier, PAO1/PAO1-Pore [9] | Fold MIC change, OM barrier, Δ3/Δ3-Pore [9] [fold] | further results
CCC[C@@H]1C[C@@H](C(=O)N[C@@H]([C@H]2O[C@H](SC)[C@H](O)[C@@H](O)[C@H]2O)[C@@H](C)O)N(C)C1 [Lincomycin] | 8 | 8 | 1 | 1 | 512 | 64 (≈ 157 µM) | 512 | 64 (≈ 157 µM) | – | – | – | – | – | – | – | –
O=C(N[C@H](CO)[C@H](O)c1ccc([N+](=O)[O-])cc1)C(Cl)Cl [Chloramphenicol] | 4 | 4 | 1 | 1 | 2 | 0.5 (≈ 1.55 µM) | 2 | 0.5 (≈ 1.55 µM) | 1 (≈ 3.09 µM) | 0.125 (≈ 0.387 µM) | 8 (≈ 24.8 µM) | 16 | 8 fold | 4 fold | 8 | –
Nc1ccc2cc3ccc(N)cc3nc2c1 [Proflavine] | 4 | 4 | 1 | 1 | 32 | 8 (≈ 38.2 µM) | 32 | 8 (≈ 38.2 µM) | – | – | – | – | – | – | – | –
C[C@H]1COc2c(N3CCN(C)CC3)c(F)cc3c(=O)c(C(=O)O)cn1c23 [Levofloxacin] | – | – | – | – | 0.016 | 0.004 (≈ 0.0111 µM) | – | 0.004 (≈ 0.0111 µM) | – | – | 0.125 (≈ 0.346 µM) | – | – | – | – | –
CN(C)[C@@H]1C(O)=C(C(N)=O)C(=O)[C@@]2(O)C(O)=C3C(=O)c4c(O)cccc4[C@@](C)(O)[C@H]3C[C@@H]12 [Tetracycline] | 2 | 4 | 2 | 1 | 0.25 | 0.125 (≈ 0.281 µM) | 0.5 | 0.125 (≈ 0.281 µM) | 2 (≈ 4.5 µM) | 0.031 (≈ 0.0698 µM) | 4 (≈ 9 µM) | 16 | 2 fold | 8 fold | 64 | –
CC1(C)S[C@@H]2[C@H](NC(=O)C(C(=O)O)c3ccccc3)C(=O)N2[C@H]1C(=O)O (stereo partly shown) [Carbenicillin] | 1 | 4 | 8 | 2 | 0.5 | 1 (≈ 2.64 µM) | 4 | 0.5 (≈ 1.32 µM) | 0.5 (≈ 1.32 µM) | 0.063 (≈ 0.166 µM) | 32 (≈ 84.6 µM) | 32 | 64 fold | 16 fold | 8 | –
CO[C@@H]1[C@@H](OC(N)=O)[C@@H](O)[C@H](Oc2ccc3c(O)c(NC(=O)c4ccc(O)c(CC=C(C)C)c4)c(=O)oc3c2C)OC1(C)C [Novobiocin] | 256 | 256 | 4 | 4 | 32 | 0.5 (≈ 0.816 µM) | 128 | 0.125 (≈ 0.204 µM) | 32 (≈ 52.2 µM) | 1 (≈ 1.63 µM) | 512 (≈ 836 µM) | 64 | 16 fold | 8 fold | 32 | –
Cc1onc(-c2ccccc2Cl)c1C(=O)N[C@@H]1C(=O)N2[C@@H]1SC(C)(C)[C@@H]2C(=O)O [Cloxacillin] | 128 | 512 | 4 | 1 | 128 | 1 (≈ 2.29 µM) | 512 | 1 (≈ 2.29 µM) | 128 (≈ 294 µM) | 8 (≈ 18.4 µM) | > 2050 | 64 | ≧8 fold | ≧4 fold | 16 | –
[H]/N=C(/N)N[C@H]1[C@H](O)[C@@H](O)[C@H](O[C@@H]2O[C@@H](C)[C@](O)(C=O)[C@H]2O[C@@H]2O[C@@H](CO)[C@H](O)[C@@H](O)[C@@H]2NC)[C@@H](N/C(N)=N\[H])[C@@H]1O [Streptomycin] | 1 | 0.5 | 1 | 2 | 2 | 4 (≈ 6.88 µM) | 2 | 2 (≈ 3.44 µM) | – | – | – | – | – | – | – | –
NCC[C@H](O)C(=O)N[C@@H]1C[C@H](N)[C@@H](O[C@H]2O[C@H](CN)[C@@H](O)[C@H](O)[C@H]2O)[C@H](O)[C@H]1O[C@H]1O[C@H](CO)[C@@H](O)[C@H](N)[C@H]1O [Amikacin] | 1 | 1 | 1 | 1 | 2 | 2 (≈ 3.42 µM) | 2 | 2 (≈ 3.42 µM) | 1 (≈ 1.71 µM) | 1 (≈ 1.71 µM) | 1 (≈ 1.71 µM) | 2 | 1 fold | 0.5 fold | 1 | –
CC[C@H]1OC(=O)[C@H](C)[C@@H](O[C@H]2C[C@@](C)(OC)[C@@H](O)[C@H](C)O2)[C@H](C)[C@@H](O[C@@H]2O[C@H](C)C[C@H](N(C)C)[C@H]2O)[C@](C)(O)C[C@@H](C)C(=O)[C@H](C)[C@@H](O)[C@]1(C)O [Erythromycin] | – | – | – | – | 4 | 4 (≈ 5.45 µM) | 64 | – | 16 (≈ 21.8 µM) | – | – | – | – | – | – | MIC in P. aeruginosa Δ3 cells ([6]; FIG. 5): 21.8 µM (≈ 16 µg/mL); MIC in P. aeruginosa Δ3-Pore cells ([7]; induced, plateau with increasing IPTG (FIG. 5)): 0.085 µM (≈ 0.0624 µg/mL); Additional decrease of MIC in permeabilized ΔTolC-Pore cells ([1]; FIG. 4A): 16 fold; Difference of MICs in E. coli WT and ΔTolC cells ([1]; FIG. 4A): 16 fold; Reduction of MIC by permeabilization of the outer membrane in WT-Pore E. coli ([1]; FIG. 4A): 64 fold; Total potentiation (WT to ΔTolC-Pore) ([1]; FIG. 4A): 512 fold; MIC ([2]; read-out: MIC in E. coli WT-Pore cells): 1.4 µM; MIC in E. coli ΔTolC cells ([3]; unchanged in the range of 0.001-0.5% arabinose (FIG. 4A)): 5.5 µM (≈ 4.04 µg/mL); MIC ([10]; PAO1, read-out: MIC in P. aeruginosa PAO1-Pore cells): 1.4 µM; MIC ([4]; read-out: MIC in E. coli WT cells): 87 µM; Change of MIC on inactivation of the three major efflux pumps (PAO1 vs Δ3) [9]: 8 fold
CCn1cc(C(=O)O)c(=O)c2ccc(C)nc21 [Nalidixic acid] | 8 | 8 | 1 | 1 | 8 | 1 (≈ 4.31 µM) | 8 | 1 (≈ 4.31 µM) | 8 (≈ 34.4 µM) | 2 (≈ 8.61 µM) | 64 (≈ 276 µM) | 16 | 8 fold | 2 fold | 4 | –
CC1(C)S[C@@H]2[C@H](NC(=O)[C@H](N)c3ccccc3)C(=O)N2[C@H]1C(=O)O [Ampicillin] | – | – | – | – | 2 | 8 (≈ 22.9 µM) | 16 | 0.5 (≈ 1.43 µM) | – | – | – | – | – | – | – | –
CO[C@H]1/C=C/O[C@@]2(C)Oc3c(C)c(O)c4c(O)c(c(/C=N/N5CCN(C)CC5)c(O)c4c3C2=O)NC(=O)/C(C)=C\C=C\[C@H](C)[C@H](O)[C@@H](C)[C@@H](O)[C@@H](C)[C@H](OC(C)=O)[C@@H]1C [Rifampicin] | – | – | – | – | 0.25 | 4 (≈ 4.86 µM) | 4 | 0.25 (≈ 0.304 µM) | 16 (≈ 19.4 µM) | 0.5 (≈ 0.608 µM) | 16 (≈ 19.4 µM) | – | – | – | – | MIC ([10]; PAO1, 16 h, read-out: MIC PAO1 Pore): 0.5 mg/L
